This note sets out measurements from patent US20240317748A1, “CARBONYL SUBSTITUTED DIAZASPIRO COMPOUNDS AND ITS USE” (BIONOVA PHARMACEUTICALS (SHANGHAI) LIMITED, priority 2021, published 2024).

Usually inhibition stands for the relative decrease from the control value, in per cent.

Molecules are shown by their SMILES.

In one data set the target is T1, Menin-MLL1 (Homo sapiens, UniProt O00255).
T1 construct: Menin (2-610) isform2; purchased ChemPartner 2020111101
T1 sequence (O00255 2-610): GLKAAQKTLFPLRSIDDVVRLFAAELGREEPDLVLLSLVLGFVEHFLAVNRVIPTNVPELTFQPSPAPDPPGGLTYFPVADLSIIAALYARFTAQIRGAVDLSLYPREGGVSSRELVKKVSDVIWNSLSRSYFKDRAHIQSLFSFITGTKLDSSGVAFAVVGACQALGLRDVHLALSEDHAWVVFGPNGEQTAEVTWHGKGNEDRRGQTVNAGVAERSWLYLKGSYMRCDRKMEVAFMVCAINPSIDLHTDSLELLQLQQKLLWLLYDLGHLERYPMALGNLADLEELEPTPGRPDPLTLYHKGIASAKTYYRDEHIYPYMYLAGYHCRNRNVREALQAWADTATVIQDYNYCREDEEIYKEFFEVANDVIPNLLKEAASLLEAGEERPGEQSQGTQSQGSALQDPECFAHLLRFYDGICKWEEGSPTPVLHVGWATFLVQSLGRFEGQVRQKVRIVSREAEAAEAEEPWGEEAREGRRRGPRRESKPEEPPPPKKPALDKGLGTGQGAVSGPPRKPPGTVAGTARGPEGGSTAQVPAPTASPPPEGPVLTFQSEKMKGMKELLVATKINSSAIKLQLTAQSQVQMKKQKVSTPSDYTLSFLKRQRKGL
In words: Menin-MLL1 inhibition assay (fluorescence polarization, Menin protein + FAM-MLL peptide). The following applies: Menin (2-610) isoform 2, FAM-labelled MLL peptide, mP readout; read-out: Biochemical assay Menin-MLL1 IC50. The format is binding.

For another data set, the system named is MV-4-11 cells. In words: Cell proliferation assay (CellTiter-Glo), MV-4-11. The format is cell-based, human. The following applies: Homo sapiens, MV4-11, 96 h; MV-4-11 (MLL-AF4), 4 days incubation; read-out: Cell antiproliferation assay MV-4-11 IC50. Put shortly: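 Antiproliferative activity by CellTiter-Glo luminescence; MV4-11 (MLL-AF4) in IMDM/10% FBS, 4 days; MOLM13 (MLL-AF9) in RPMI1640/20% FBS, 12 days; OCI-AML3 (NPM1c) in RPMI1640/20% FBS, 5 days; HL-60 (MLL wild-type control) in IMDM/20% FBS, 4 days. Compounds 4-fold serial from 2 mM stock, 200-fold final dilution; 37 °C, 5% CO2.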

Another data set deals with OCI-AML3 cells. Put plainly: Cell proliferation assay (CellTiter-Glo), OCI-AML3. The format is cell-based, human. The settings on record: Homo sapiens, OCI-AML-3, 120 h; OCI-AML3 (NPM1c mutation), 5 days incubation; read-out: Cell antiproliferation assay OCI-AML3 IC50. As to the method:
(§1) The antiproliferative activity of test compounds was assessed in human leukemia cell lines. The cell line MV4-11, MOLM13 and OCI-AML3, which expresses the MLL fusion protein MLL-AF4, MLL-AF9 and carry the NPM1c gene mutation, respectively, were tested. HL-60 was used as a control cell line containing two MLL wildtype alleles in order to exclude compounds that display general cytotoxic effect. MV4-11 cells were cultured in IMDM supplemented with 10% FBS, MOLM13 and OCI-AML3 cells were cultured in RPMI1640 supplemented with 20% FBS, and HL-60 cells were cultured in IMDM supplemented with 20% FBS. Corresponding cells (MV4-11, MOLM13, OCI-AML3 or HL-60 cell line) were seeded in 100 uL medium per well in 96-well plate (white wall with clear bottom, tissue culture treated, Corning, Cat. No. CLS3903; Lot.No. 30419025). Plates were placed in the CO2 incubator overnight. Compounds solution (2 mM starting, 4-fold serial dilution) were prepared and added to the wells containing 100 μL of the culture medium with HPD300 according to the plate map and centrifuge at 1000 rpm for 1 minutes (200-fold dilution totally). MV4-11, MOLM13, OCI-AML3 and HL-60 cells were incubated with the compounds for 4, 12, 5 and 4 days, respectively, under 5% CO2 at 37° C., respectively. 100 μL of CellTiter-Glo reagent (Promega, Cat. No. G7573, Lot. No. 0000416710) was added to the assay plate by Multidrop Combi instrument, contents were mixed for 10 minutes on an orbital shaker to induce cell lysis. After incubation at room temperature for 10 mins, clear bottom with white back seal was pasted and luminescence with Envision was read.

A further data set deals with MOLM13 cells. Put plainly: Cell proliferation assay (CellTiter-Glo), MOLM13. Type of data set: cell-based, human. The following applies: Homo sapiens, MOLM-13, 288 h; MOLM13 (MLL-AF9), 12 days incubation; read-out: Cell antiproliferation assay MOLM13 IC50. As to the method:
as §1
For orientation: In ATP-based viability assays light output follows the ATP content of the culture.

The next data set relates to HL-60 cells. Put plainly: Cell proliferation assay (CellTiter-Glo), HL-60 control line. The format is cell-based, human. The settings on record: Homo sapiens, 96 h, 4 days incubation; for IC50: HL-60 control line (MLL wildtype), read-out: Cell antiproliferation assay HL-60 IC50; for inhibition at 10 µM: HL-60 control line, read-out: HL-60 (Pct of inhibition at 10 μM). As to the method:
as §1

Data set [1] in a line: Liver microsome stability study. The settings on record: human liver microsomes 0.5 mg/mL, 1 μM compound, NADPH, 37° C.; read-out: Human liver microsome T1/2. The format is in vitro ADME. On the procedure:
Studies were carried out in liver microsomes (Corning, 0.5 mg/mL). Stock solutions were prepared at 10 mM in DMSO for the test compounds. Aliquots of the stock solutions were diluted to 0.5 mM with acetonitrile, and then further diluted upon the addition of liver microsomes/buffer to 1.5 μM. An aliquot of 30 μL of 1.5 μM solutions was mixed with 15 μL of 6 mM NADPH and the final concentration of NADPH was 2 mM, which had been pre-warmed to 37° C. Test compounds and Ketanserin final concentrations were 1 μM. The plates were kept in a 37° C. water bath for the duration of the experiment. At each time point (0, 5, 15, 30, 45 minutes), 135 μL of acetonitrile was added into corresponding wells. After the final time point was quenched by acetonitrile, the assay plates were shaken at the vibrator (IKA, MTS 2/4) for 10 min (600 rpm/min) and then centrifuged at 5,594 g for 15 min (Thermo Multifuge×3R). Aliquots of the supernatant were taken, diluted 1:1 into distilled water, and analyzed by LC-MS/MS. The peak area response ratio to internal standard (PARR) of the compounds at 5, 15, 30, 45 minutes was compared to the PARR at time 0 to determine the percent of test compound remaining at each time point. Half-lives were calculated using Excel software, fitting to a single-phase exponential decay equation.
A general note: Microsomes from liver hold many membrane-bound enzymes, among them those of drug oxidation.

The target in a further data set is T2, hERG potassium channel (Homo sapiens, UniProt Q12809).
T2 construct: expressed in transfected cells; host or cells: CHO-hERG cells
In words: hERG inhibition study (Qpatch, CHO-hERG cells). The format is cell-based. The following applies: highest test concentration 40 μM. As to the method:
The inhibition effects of the test compounds on hERG were carried out in CHO-hERG cells (cell density: 21.5×10˜6/mL). 10 μL compound mother liquor was added to 20 μL DMSO solution, and then continuously diluted to 6 concentrations by 3-fold. The compound solution (4 uL) of six different concentrations were added to the extracellular solution (996 uL) and diluted to the final concentration to be tested (250-fold dilution totally). The highest test concentration was 40.00 μM, followed by […], 13.3, 4.4, 1.48, 0.49 and 0.16 μM. […] The high impedance sealing of single cell and the formation of whole cell model were all completed automatically by Qpatch instrument.
(The hERG channel carries a current that helps repolarise heart muscle cells.)

T2 sequence (Q12809 whole entry): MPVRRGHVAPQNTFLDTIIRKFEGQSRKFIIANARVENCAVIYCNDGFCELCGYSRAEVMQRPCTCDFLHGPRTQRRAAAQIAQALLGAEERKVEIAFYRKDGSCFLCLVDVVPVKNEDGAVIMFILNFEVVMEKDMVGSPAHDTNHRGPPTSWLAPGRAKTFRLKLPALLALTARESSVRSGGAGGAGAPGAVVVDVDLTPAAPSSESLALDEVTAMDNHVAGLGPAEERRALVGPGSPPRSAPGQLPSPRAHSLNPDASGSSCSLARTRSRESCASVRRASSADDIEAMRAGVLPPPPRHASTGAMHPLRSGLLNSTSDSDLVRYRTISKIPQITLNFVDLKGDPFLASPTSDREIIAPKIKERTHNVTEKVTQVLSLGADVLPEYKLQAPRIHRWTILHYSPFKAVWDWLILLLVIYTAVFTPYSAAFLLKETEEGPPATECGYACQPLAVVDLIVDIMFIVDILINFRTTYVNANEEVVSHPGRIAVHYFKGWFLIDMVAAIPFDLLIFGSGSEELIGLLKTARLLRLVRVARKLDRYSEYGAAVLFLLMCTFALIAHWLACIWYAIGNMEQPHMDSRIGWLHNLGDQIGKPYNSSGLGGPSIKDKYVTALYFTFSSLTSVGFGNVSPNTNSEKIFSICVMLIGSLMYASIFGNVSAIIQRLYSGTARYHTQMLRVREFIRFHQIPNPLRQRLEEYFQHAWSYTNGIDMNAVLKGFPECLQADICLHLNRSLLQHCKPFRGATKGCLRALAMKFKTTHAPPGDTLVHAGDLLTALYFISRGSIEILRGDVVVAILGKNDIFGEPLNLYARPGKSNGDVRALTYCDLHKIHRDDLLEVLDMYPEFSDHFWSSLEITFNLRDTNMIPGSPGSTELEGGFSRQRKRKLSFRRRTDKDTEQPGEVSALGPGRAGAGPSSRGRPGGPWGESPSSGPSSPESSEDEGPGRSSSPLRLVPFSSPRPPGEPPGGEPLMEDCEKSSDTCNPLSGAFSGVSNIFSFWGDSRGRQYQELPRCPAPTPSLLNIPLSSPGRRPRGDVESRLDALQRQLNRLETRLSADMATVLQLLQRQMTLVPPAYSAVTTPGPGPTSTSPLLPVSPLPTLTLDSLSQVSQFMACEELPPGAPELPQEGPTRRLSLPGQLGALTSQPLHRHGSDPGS

`CCN(C(=O)c1cc(F)ccc1Oc1nncnc1N1CC2(CCN(C(=O)[C@H]3NC[C@@H]4C[C@@H]43)CC2)C1)C(C)C` [Example 55]: the IC50 on Menin-MLL1 is 2.3 nM; in the data set with MV-4-11 cells it was 14.2 nM; in the data set on OCI-AML3 cells, 186 nM; in the data set on MOLM13 cells, 61.9 nM; with HL-60 cells it was > 10000 nM; against hERG potassium channel it was > 40000 nM. For the same compound, the inhibition at 10 µM in the data set on HL-60 cells was -5%. In data set [1], the half-life at 1 μM was 2.65 h.

On to `CCN(C(=O)c1cc(F)ccc1Oc1nncnc1N1CC2(CCN(C(=O)[C@H]3NC[C@@H]4CCC[C@@H]43)CC2)C1)C(C)C` [Example 74], for which the IC50 on Menin-MLL1 is 4.6 nM; with MV-4-11 cells, 5.6 nM; in the data set with OCI-AML3 cells it was 30.9 nM; in the data set on MOLM13 cells it was 14.9 nM; with HL-60 cells it was > 10000 nM; against hERG potassium channel, > 40000 nM. Besides, the inhibition at 10 µM in the data set with HL-60 cells was 7.9%.

Take `CCN(C(=O)c1cc(F)ccc1Oc1nncnc1N1CC2(CCN(C(=O)[C@H]3NCCC3(C)C)CC2)C1)C(C)C` [Example 65]: the IC50 on Menin-MLL1 is 3.1 nM; in the data set with MV-4-11 cells it was 15.1 nM; in the data set on MOLM13 cells, 57 nM; with HL-60 cells, > 10000 nM. In addition, the inhibition at 10 µM with HL-60 cells is -3.7%. Also, in data set [1], the half-life at 1 μM was 1.12 h.

As for `CCN(C(=O)c1cc(F)ccc1Oc1nncnc1N1CC2(CCN(C(=O)[C@H]3NCC[C@@H]3C)CC2)C1)C(C)C` [Example 57], the IC50 at Menin-MLL1 is 5.3 nM; in the data set with MV-4-11 cells it was 13 nM; in the data set on OCI-AML3 cells, 144 nM; in the data set with MOLM13 cells, 57.8 nM; in the data set on HL-60 cells, > 10000 nM; against hERG potassium channel, > 40000 nM. Also, in the data set on HL-60 cells, the inhibition at 10 µM is -16.4%. For the same compound, the half-life at 1 μM in data set [1] was 1.75 h.

In the case of `CCN(C(=O)c1cc(F)ccc1Oc1nncnc1N1CC2(CCN(C(=O)[C@@H]3C[C@@H](C)CN3)CC2)C1)C(C)C` [Example 60], the IC50 on Menin-MLL1 was 4.5 nM; in the data set with MV-4-11 cells, 40.1 nM; in the data set with HL-60 cells it was > 10000 nM; on hERG potassium channel, > 40000 nM. Also, the inhibition at 10 µM in the data set with HL-60 cells is -8.4%. For the same compound, the half-life at 1 μM in data set [1] was 1.98 h.

Turning to `CCN(C(=O)c1cc(F)ccc1Oc1nncnc1N1CC2(CCN(C(=O)[C@H]3NC[C@H]4[C@@H]3C4(C)C)CC2)C1)C(C)C` (stereo in doubt) [Example 68], the IC50 at Menin-MLL1 is 4.1 nM; with MV-4-11 cells, 13.8 nM; with OCI-AML3 cells, 68.3 nM; in the data set with MOLM13 cells, 46.1 nM; in the data set on HL-60 cells, > 10000 nM; against hERG potassium channel, > 40000 nM. In addition, the inhibition at 10 µM in the data set with HL-60 cells came to 14.1%.

With `O=C([C@H]1NC[C@@H]2CCC[C@@H]21)N1CCC2(CC1)CN(c1ncnnc1Oc1ccc(F)cc1-c1cncnc1C1CC1)C2` [Example 82], the IC50 is 4.2 nM at Menin-MLL1; 5.6 nM in the data set with MV-4-11 cells; 11.2 nM in the data set with OCI-AML3 cells; 12.3 nM in the data set on MOLM13 cells; > 10000 nM in the data set with HL-60 cells; 29400 nM at hERG potassium channel. For the same compound, in the data set with HL-60 cells, the inhibition at 10 µM stood at 22.3%.

Take `CCN(C(=O)c1cc(F)ccc1Oc1nncnc1N1CC2(CCN(C(=O)[C@H]3NCC[C@@H]3OC)CC2)C1)C(C)C` [Example 84]: the IC50 on Menin-MLL1 is 5.1 nM; with MV-4-11 cells, 20 nM; in the data set with OCI-AML3 cells, 67.1 nM; with MOLM13 cells it was 60.9 nM; in the data set with HL-60 cells it was > 10000 nM. Also, in the data set on HL-60 cells, the inhibition at 10 µM came to 15.1%. For the same compound, the half-life at 1 μM in data set [1] amounted to 1.13 h.

In the case of `CCN(C(=O)c1cc(F)ccc1Oc1cncnc1N1CC2(CCN(C(=O)[C@@H]3C[C@@H](F)CN3)CC2)C1)C(C)C` [Example 2, N-ethyl-5-fluoro-2-[(4-{7-[(2S,4R)-4-fluoropyrrolidine-2-carbonyl]-2,7-diazaspiro[3.5]nonan-2-yl}pyrimidin-5-yl)oxy]-N-(propan-2-yl)benzamide], the IC50 on Menin-MLL1 is 4.3 nM; in the data set on MV-4-11 cells it was 20.3 nM; with OCI-AML3 cells, 102 nM; in the data set on MOLM13 cells, 62.4 nM; in the data set with HL-60 cells, > 10000 nM; against hERG potassium channel, > 40000 nM. Also, the inhibition at 10 µM in the data set with HL-60 cells is -30.1%.

With `CCN(C(=O)c1cc(F)ccc1Oc1nncnc1N1CC2(CCN(C(=O)[C@@H]3C[C@@H](F)CN3)CC2)C1)C(C)C` [Example 39, N-ethyl-5-fluoro-2-[(5-{7-[(2S,4R)-4-fluoropyrrolidine-2-carbonyl]-2,7-diazaspiro [3.5]nonan-2-yl}-1,2,4-triazin-6-yl)oxy]-N-(propan-2-yl) benzamide], the results for the IC50 at Menin-MLL1, in the data set on MV-4-11 cells and with HL-60 cells were 4.2 nM, 43 nM and > 10000 nM, respectively. For the same compound, the inhibition at 10 µM in the data set on HL-60 cells is -24.9%. Also, the half-life at 1 μM in data set [1] was 1.57 h.

`C[C@H]1CCN[C@@H]1C(=O)N1CCC2(CC1)CN(c1ncnnc1Oc1ccc(F)cc1-c1cncnc1C1CC1)C2` [Example 77]: the IC50 is 3.4 nM at Menin-MLL1, 17.3 nM in the data set on MV-4-11 cells, > 10000 nM in the data set on HL-60 cells and > 40000 nM against hERG potassium channel. Further, the inhibition at 10 µM in the data set with HL-60 cells is 17.5%. Besides, in data set [1], the half-life at 1 μM came out at 1.35 h.
